Source: US11866720B2, “Transgenic or non-transgenic plants with mutated protoporphyrinogen oxidase having increased tolerance to herbicides” (priority 2013, dated 2024)
Residue numbers refer to the chain shown, from its start. Where “and” joins values, the source holds several entries; their conditions need not be identical. Equal entries are not always repeated.

Legend:
Assay in all cases: biochemical
Details in all cases: IC50 (M)
[1] = target: T1, recombinant wildtype and mutated PPO (Amaranthus PPO2: PPX2L_WC SEQ ID NO 2, PPX2L_AC SEQ ID NO 4, dG210 SEQ ID NO 6 & 8) (Amaranthus tuberculatus, UniProt Q0NZW9, D133A/F420M/R128Y)
T1 sequence (Q0NZW9 1-534 R128Y/D133A/F420M): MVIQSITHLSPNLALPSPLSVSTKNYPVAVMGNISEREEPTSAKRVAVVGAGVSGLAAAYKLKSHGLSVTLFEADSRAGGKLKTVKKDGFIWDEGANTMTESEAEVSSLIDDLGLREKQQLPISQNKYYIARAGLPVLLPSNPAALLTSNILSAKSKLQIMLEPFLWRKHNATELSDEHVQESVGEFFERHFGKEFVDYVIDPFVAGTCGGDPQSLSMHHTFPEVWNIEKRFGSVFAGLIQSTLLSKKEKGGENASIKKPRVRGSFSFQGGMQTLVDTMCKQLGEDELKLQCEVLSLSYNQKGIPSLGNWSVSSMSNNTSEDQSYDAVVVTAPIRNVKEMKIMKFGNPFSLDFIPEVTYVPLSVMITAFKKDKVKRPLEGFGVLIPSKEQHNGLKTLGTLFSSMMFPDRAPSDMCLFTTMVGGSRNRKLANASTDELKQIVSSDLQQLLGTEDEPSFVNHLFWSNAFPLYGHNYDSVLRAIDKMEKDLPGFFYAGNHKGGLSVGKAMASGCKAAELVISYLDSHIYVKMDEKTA

[2] = target: T2, recombinant wildtype and mutated PPO (Amaranthus PPO2: PPX2L_WC SEQ ID NO 2, PPX2L_AC SEQ ID NO 4, dG210 SEQ ID NO 6 & 8) (Amaranthus tuberculatus, UniProt Q0NZW9, D133A/F420L/R128I)
T2 sequence (Q0NZW9 1-534 R128I/D133A/F420L): T1 sequence (Q0NZW9 1-534 R128Y/D133A/F420M) with Y128I, M420L

[3] = target: T3, recombinant wildtype and mutated PPO (Amaranthus PPO2: PPX2L_WC SEQ ID NO 2, PPX2L_AC SEQ ID NO 4, dG210 SEQ ID NO 6 & 8) (Amaranthus tuberculatus, UniProt Q0NZW9, D133A/F420L/R128F)
T3 sequence (Q0NZW9 1-534 R128F/D133A/F420L): T1 sequence (Q0NZW9 1-534 R128Y/D133A/F420M) with Y128F, M420L

[4] = target: recombinant wildtype and mutated PPO (Amaranthus PPO2: PPX2L_WC SEQ ID NO 2, PPX2L_AC SEQ ID NO 4, dG210 SEQ ID NO 6 & 8) (Amaranthus tuberculatus, UniProt Q0NZW9, D133A/F420L/R128C)
[5] = target: recombinant wildtype and mutated PPO (Amaranthus PPO2: PPX2L_WC SEQ ID NO 2, PPX2L_AC SEQ ID NO 4, dG210 SEQ ID NO 6 & 8) (Amaranthus tuberculatus, UniProt Q0NZW9, D133A/F420I/R128H)
[6] = target: recombinant wildtype and mutated PPO (Amaranthus PPO2: PPX2L_WC SEQ ID NO 2, PPX2L_AC SEQ ID NO 4, dG210 SEQ ID NO 6 & 8) (Amaranthus tuberculatus, UniProt Q0NZW9, D133A/F420M/R128C)
Sequence of recombinant wildtype and mutated PPO (Amaranthus PPO2: PPX2L_WC SEQ ID NO 2, PPX2L_AC SEQ ID NO 4, dG210 SEQ ID NO 6 & 8) (Amaranthus tuberculatus, UniProt Q0NZW9, D133A/F420M/R128C) (Q0NZW9 1-534 R128C/D133A/F420M): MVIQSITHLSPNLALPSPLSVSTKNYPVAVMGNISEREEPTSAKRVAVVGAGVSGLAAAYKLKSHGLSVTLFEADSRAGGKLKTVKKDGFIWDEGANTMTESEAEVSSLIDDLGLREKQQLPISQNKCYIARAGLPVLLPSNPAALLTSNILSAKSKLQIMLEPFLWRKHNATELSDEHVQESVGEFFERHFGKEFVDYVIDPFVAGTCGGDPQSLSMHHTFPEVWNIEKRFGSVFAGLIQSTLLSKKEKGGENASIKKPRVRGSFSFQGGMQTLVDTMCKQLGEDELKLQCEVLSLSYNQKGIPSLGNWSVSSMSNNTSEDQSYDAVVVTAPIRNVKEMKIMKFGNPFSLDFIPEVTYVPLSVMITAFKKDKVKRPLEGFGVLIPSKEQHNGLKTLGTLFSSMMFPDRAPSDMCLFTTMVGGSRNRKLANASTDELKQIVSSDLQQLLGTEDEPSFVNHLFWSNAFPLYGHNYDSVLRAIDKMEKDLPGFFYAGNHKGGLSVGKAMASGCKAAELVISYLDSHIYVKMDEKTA

Sequence of recombinant wildtype and mutated PPO (Amaranthus PPO2: PPX2L_WC SEQ ID NO 2, PPX2L_AC SEQ ID NO 4, dG210 SEQ ID NO 6 & 8) (Amaranthus tuberculatus, UniProt Q0NZW9, D133A/F420L/R128C) (Q0NZW9 1-534 R128C/D133A/F420L): as the sequence (Q0NZW9 1-534 R128C/D133A/F420M) above, with M420L counted along it
Sequence of recombinant wildtype and mutated PPO (Amaranthus PPO2: PPX2L_WC SEQ ID NO 2, PPX2L_AC SEQ ID NO 4, dG210 SEQ ID NO 6 & 8) (Amaranthus tuberculatus, UniProt Q0NZW9, D133A/F420I/R128H) (Q0NZW9 1-534 R128H/D133A/F420I): as the sequence (Q0NZW9 1-534 R128C/D133A/F420M) above, with C128H, M420I counted along it

For C#CCN1C(=O)C(F)(F)Oc2cc(F)c(-n3c(=O)n(C)c(=S)n(C)c3=O)cc21, the IC50 [1] was 2.85e-07 M and 1.02e-07 M, the IC50 [2] was 4.05e-07 M and 2.45e-07 M and the IC50 [3] was 1.01e-06 M. The IC50 [4] was 1e-07 M and 1.83e-07 M, the IC50 [5] was 8.22e-08 M and the IC50 [6] was 2.53e-08 M and 2.33e-08 M.
C#CCN1C(=O)C(F)(F)Oc2cc(F)c(-n3c(=O)cc(C(F)(F)F)n(C)c3=O)cc21 showed an IC50 [1] of 1.13e-07 M, an IC50 [2] of 2.69e-07 M and an IC50 [4] of 6.72e-08 M. It also gave an IC50 [6] of 1.11e-08 M.
C#CCN1C(=O)C(F)(F)Oc2cc(F)c(N3C(=O)C4=C(CCCC4)C3=O)cc21 was tested, and the IC50 [1] was at least 1e-05 M, the IC50 [2] was at least 1e-05 M and the IC50 [4] was at least 1e-05 M. It also gave an IC50 [6] of 3.57e-06 M.
With COC(Oc1ccccc1Oc1cc(-n2c(=O)cc(C(F)(F)F)n(C)c2=O)c(F)cc1Cl)C(=O)OC1CCCCC1 (stereo not drawn) the IC50 [2] was 1.07e-07 M, the IC50 [3] was 1.18e-06 M and the IC50 [5] was 1.31e-06 M. For the same molecule, the IC50 [6] was 2.98e-08 M.
In the case of COC(=O)C(OC)Oc1ccccc1Oc1cc(-n2c(=O)cc(C(F)(F)F)n(C)c2=O)c(F)cc1Cl (stereo not drawn), the IC50 [2] was 7.13e-08 M, the IC50 [3] was 4.84e-08 M and the IC50 [5] was 7.54e-08 M. For the same molecule, the IC50 [6] was 1.16e-08 M.
CCOC(=O)COc1ncccc1Oc1cc(-n2c(=O)cc(C(F)(F)F)n(C)c2=O)c(F)cc1Cl [A.13, ethyl [3-[2-chloro-4-fluoro-5-(1-methyl-6-trifluoromethyl-2,4-dioxo-1,2,3,4-tetrahydropyrimidin-3-yl)phenoxy]-2-pyridyloxy]acetate] was tested, and the IC50 [1] was 8.92e-08 M, the IC50 [2] was 2.01e-07 M and the IC50 [4] was 6.81e-07 M. The IC50 [6] was 6.95e-08 M.
O=C(O)c1cc(Oc2ccc(C(F)(F)F)cc2Cl)ccc1[N+](=O)[O-] [ACIFLUORFEN] showed an IC50 [1] of at least 1e-05 M, an IC50 [2] of at least 1e-05 M and an IC50 [4] of at least 1e-05 M. It also gave an IC50 [6] of at least 1e-05 M.
C=CCOC(=O)C(C)(C)OC(=O)c1cc(-n2c(=O)cc(C(F)(F)F)n(C)c2=O)ccc1Cl [BUTAFENACIL] was tested, and the IC50 [1] was 5.04e-08 M, the IC50 [2] was 8.02e-08 M and the IC50 [4] was 1.1e-07 M. It also gave an IC50 [6] of 2.31e-08 M.
With CCOC(=O)C(Cl)Cc1cc(-n2nc(C)n(C(F)F)c2=O)c(F)cc1Cl (stereo not drawn) [CARFENTRAZONE-ETHYL] the IC50 [1] was 8.52e-08 M, the IC50 [2] was 1.61e-07 M and the IC50 [4] was 3.08e-07 M. It also gave an IC50 [6] of 2.99e-08 M.
C#CCN1C(=O)COc2cc(F)c(N3C(=O)C4=C(CCCC4)C3=O)cc21 [Flumioxazin, flumioxazin] showed an IC50 [1] of at least 1e-05 M, an IC50 [2] of at least 1e-05 M and an IC50 [4] of at least 1e-05 M. For the same molecule, the IC50 [6] was at least 1e-05 M.
CS(=O)(=O)NC(=O)c1cc(Oc2ccc(C(F)(F)F)cc2Cl)ccc1[N+](=O)[O-] [Fomesafen, fomesafen] gave an IC50 [1] of at least 1e-05 M, an IC50 [2] of at least 1e-05 M and an IC50 [4] of at least 1e-05 M. The IC50 [6] was 1.1e-05 M.
For CCOC(=O)C(C)OC(=O)c1cc(Oc2ccc(C(F)(F)F)cc2Cl)ccc1[N+](=O)[O-] (stereo not drawn) [Lactofen, lactofen], the IC50 [1] was 1.43e-07 M, the IC50 [2] was 1.3e-07 M and the IC50 [4] was 1.42e-07 M. For the same molecule, the IC50 [6] was 6.39e-08 M.
CCOc1cc(Oc2ccc(C(F)(F)F)cc2Cl)ccc1[N+](=O)[O-] [OXIFLUORFEN] showed an IC50 [1] of 1.13e-06 M, an IC50 [2] of 4.21e-06 M and an IC50 [4] of 1.49e-06 M. It also gave an IC50 [6] of 4.16e-07 M.
